In assay [1] the test system is HPP-CFU colony forming cells. The experiment in a line: Blood cell colony forming assay, HPP-CFC colonies (Example 5). In kind it is cell-based, human. Conditions: liquid cultures of Example 2 (1 μg/mL compound), 500 cells/dish, MethoCult GF H4435, 12 days, averaged. The protocol: The effects of Compounds No. 1, No. 2, and No. 4 of the present invention on hematopoietic progenitor cells were measured by blood cell colony forming assay. The liquid cell cultures obtained in Example 2 were poured into 3.5-cm Petri dishes with MethoCult GF H4435 culture medium (Stemcell Technologies) at 500 cells/dish and incubated in a CO2 incubator (5% CO2, 37° C.) for 12 days. The number of HPP-CFC colonies in each plate was counted under a microscope routinely. The assay was carried out at least in duplicate, and the numbers of HPP-CFC colonies were averaged.

In a further assay the test system is CD34^+NGFR^+ cells. The assay is described as follows: Transfection of cord blood CD34+ cells with NGFR gene, CD34+NGFR+ cell expansion (Example 10). Also noted: species or system human. Conditions: TPO 20 ng/mL or compound 0.3 μg/mL, 20 ng/mL SCF and Flt-3; based on number of CD34+NGFR+ cells in the absence of them. The protocol: The human cord blood-derived CD34^+ cells collected or purchased in Example 1 were plated on 3 cm-Petri dishes (TPP) (100000 cells/3 ml/dish). As the culture medium, StemSpan SFEM (Stemcell Technologies) containing 20 ng/ml SCF (Peprotech) and 20 ng/mL Flt-3 (Wako Pure Chemical Industries) was used, and TPO (Peprotech) or Compound No. 1 or No. 4 in dimethyl sulfoxide in an amount of 0.1% (v/v) was added to a final concentration of 20 ng/mL or 0.3 μg/mL, respectively. A negative control culture was incubated in the absence of TPO and the compounds.
After the cells were incubated in liquid culture at 37° C. for 24 hours in a CO2 incubator (5% CO2), 2 ml of the culture medium was sucked out, and 2 ml of the solution of the retrovirus for expression of NGFR prepared in Example 7 (containing 5 μg/mL protamine sulfate (Sigma-Aldrich Japan), 20 ng/ml SCF (Peprotech) and 20 ng/mL Flt-3 (Wako Pure Chemical Industries)) was added. TPO (Peprotech) or Compound No. 1 or No. 4 in dimethyl sulfoxide in an amount of 0.1% (v/v) was further added to a final concentration of […] or 0.3 μg/mL, respectively, and centrifugation at 2000 g was carried out at 32° C. for 30 minutes. Then, the cells were incubated in liquid culture under the same conditions as mentioned above for 24 hours, 2 ml of the culture medium was sucked out, 2 ml of the same solution of the retrovirus for expression of NGFR was added together with TPO or either compound, and centrifugation at 2000 g was carried out at 32° C. for 30 minutes. […] The cells were incubated in liquid culture under the same conditions as mentioned above for 24 hours, and the number of viable cells was counted by trypan blue assay (GIBCO).
The number of CD34^+ cells carrying NGFR introduced via the retrovirus vector (the number of CD34^+NGFR^+ cells) was calculated as follows. […] The stained cells were analyzed with JSAN (Bay Bioscience) to determined the proportion of CD34^+NGFR^+ cells, which was multiplied by the number of viable cells to calculate the number of CD34^+NGFR^+ cells. […]

The next assay concerns SRC. The experiment in a line: Transplantation of cell culture into NOD/SCID mice, human CD45+ cells in bone marrow (Example 7). As to conditions: cells cultured with 1 μg/mL compound vs 10 ng/mL TPO; three weeks after transplantation (FIG. 3). Format: in vivo. How it is done: Cultured cells obtained in the same manner as in Example 2 in the presence of TPO (Peprotech) at a final concentration of 10 ng/mL or in the presence of Compound No. 1 or No. 4 at a final concentration of 1 μg/mL was transplanted into at least three 7- to 8-week-old NOD/SCID mice by tail vein injection at 4 to 5×10^4 cells/mouse in terms of the initial number of CD34^+ cells after a sublethal dose of irradiation (2.75 to 3 Gy). Three weeks after the transplantation, the mice were killed, and the bone marrow cells were collected from both thighbones. Subsequently, the bone marrow cells were stained with a human CD45 antibody (APC, Becton, Dickinson and Company), then washed with PBS(−) containing 2% (v/v) FBS and stained with propidium iodide (Sigma-Aldrich Japan) added to a final concentration of 5 μg/mL. The stained cells were analyzed with a flow cytometer JSAN (Bay Bioscience) to determined the proportion of human CD45^+ cells in the bone marrow cells.
The proportions of human CD45^+ cells from the cell cultures incubated in the presence of 1 μg/mL of Compound No. 1 or No. 4 based on the proportion of human CD45^+ cells from the cell culture incubated in the presence of 10 ng/mL TPO are shown in FIG. 3.

For assay [2], the system named is CD34^+CD38^− cells. The experiment in a line: Expansion of CD34+CD38− cells from human cord blood-derived CD34+ cells (Example 2). Format: cell-based. As to conditions: Homo sapiens, 168 h, 1 μg/mL compound, 50 ng/mL SCF, StemSpan SFEM, 7 days; based on number of CD34+CD38− cells in the absence of compound; read-out: Expansion efficiency. Put shortly: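 Human cord blood CD34+ cells (10000 cells/mL) were cultured 7 days at 37 °C, 5% CO2 in StemSpan SFEM with 50 ng/mL SCF and compound at 1 μg/mL final (0.1% DMSO). Viable cells were counted by trypan blue and the CD34+CD38− fraction by flow cytometry with PI exclusion; expansion is relative to no-compound culture, graded A (≥10), B (5–<10), C (3–<5).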

Assay [3] concerns CD34^+CD38^− cells. The experiment in a line: Expansion of CD34+CD38− cells using cord blood-derived CD34+CD38− cells (Example 6). Format: cell-based, human. As to conditions: 1 μg/mL compound, CD34+CD38− starting cells, 50 ng/mL SCF, 7 days; based on number of CD34+CD38− cells in the presence of 10 ng/mL TPO. How it is done: The human cord blood-derived CD34^+CD38^− cells collected in Example 1 were plated on a 24-well plate (TPP) (from 3000 to 10000 cells/1 mL/well). As the culture medium, StemSpan SFEM (Stemcell Technologies) containing 50 ng/mL SCF (Peprotech) was used, and TPO (Peprotech) or Compound No. 1, No. 2, No. 4 or No. 6 in dimethyl sulfoxide in an amount of 0.1% (v/v) was added to a final concentration of […] or 1 μg/mL, respectively. After the cells were incubated in liquid culture at 37° C. for 7 days in a CO2 incubator (5% CO2), the number of CD34^+CD38^− cells was calculated in the same manner as in Example 2.
The expansion efficiencies in the presence of 1 μg/mL of the compounds based on the number of CD34^+CD38^− cells in the presence of 10 ng/mL TPO are shown in Table 5.

As for `C/C(=N\NC(=O)c1ccc(C(=O)NCc2ccc(C(N)=O)cc2)s1)c1csc(-c2ccc(Cl)c(Cl)c2)c1O` [Compound No. 4], the “Number of HPP-CFC colonies” value in assay [1] is recorded as 45. The Expansion efficiency in the assay with CD34^+NGFR^+ cells worked out at 12.5; in the assay with CD34^+CD38^− cells [3], 1.9. The “SRC expanding effect (proportion of human CD45+ cells in bone marrow)” value with SRC was “excellent SRC expanding effect”. Also, the fold induction at 1 µg/mL in the assay with CD34^+CD38^− cells [2] was at least 10.
Turning to `C/C(=N\NC(=O)c1ccc(C(=O)NCc2cn(C)cn2)s1)c1csc(-c2ccc(Cl)c(Cl)c2)c1O` [Compound No. 1], the “Number of HPP-CFC colonies” value in assay [1] is listed as 41. For the same compound, the Expansion efficiency with CD34^+NGFR^+ cells is listed as 9.8; in the assay on CD34^+CD38^− cells [3] it was 1.9. Moreover, in the assay with SRC, the “SRC expanding effect (proportion of human CD45+ cells in bone marrow)” value is on record as “excellent SRC expanding effect”. In addition, the fold induction at 1 µg/mL with CD34^+CD38^− cells [2] is at least 10.
Turning to thrombopoietin [TPO], the Expansion efficiency in the assay with CD34^+NGFR^+ cells is listed as 7.7.

The values are drawn from patent US9527828B2, “Method for expanding hematopoietic stem cells using heterocyclic compound” (Nissan Chemical Industries, Ltd., priority 2007, dated 2016).
